# In patent US11684068B2, “Herbicidal compositions and methods of use thereof” (Valent U.S.A. LLC, priority 2018, dated 2023):
# Assays:
# [1] = Wet sieve test and crystal examination after accelerated aging (long-term storage stability); format: physicochemical
# Experimental: Variations of Composition 1 from Table 1, above, were subjected to extreme temperatures to determine long-term storage stability including the likelihood of large crystals growing that cause clogging of the spray nozzle by performing the wet sieve test. Specifically, these compositions containing various amounts of polyvinyl alcohol and ammonium sulfate were subjected to 2 weeks at 54° C. and 4 weeks at 50° C. accelerated aging. The wet sieve test typically was performed soon after the samples were brought back to room temperature using the following protocol:
# A bottle containing the composition was emptied onto a 100-mesh sieve positioned on top of a receiver. Water was added to the bottle, shaken to rinse, and the rinse solution was poured onto the mesh to wash off the material. The rinsing step was repeated until visible quantity of residue on the mesh remained constant. If necessary, additional, minimum streams of water were introduced by way of a squirt or spray bottle to further clear the mesh. Typically, about 250 milliliters of water was used for about 40 grams of sample. The mesh was then dried to a constant weight and observed under a microscope.
# (§1) Variations of Composition 2 from Table 1, above, were subjected to several conditions to determine long-term storage stability including % wet sieve test residue. Specifically, these compositions contained 0% or 2.8% w/w of polyvinyl alcohol and 0% or 2.8% w/w ammonium sulfate or 0% or 2.8% or 5.6% w/w potassium citrate and were subjected to 2 weeks at 54° C. and 4 weeks at 50° C.
# Variations of Composition 3 from Table 1 above were subjected to several conditions to determine long-term storage stability including % wet sieve test residue. Specifically, these compositions contained 0 or 2.8% w/w of polyvinyl alcohol and 0% or 2.8% w/w ammonium sulfate and were subjected to 2 weeks at 54° C.
# as §1, with “Composition 4” for “Composition 2”, “sulfate” for “sulfate or 0% or 2.8% or 5.6% w/w potassium citrate”, “C.” for “C. and 4 weeks at 50° C.”
# Compositions 5-7 from Table 1, above, were subjected to several conditions to determine long-term storage stability including % wet sieve test residue. Specifically, these compositions contained 1.4% or 1.5% w/w of polyvinyl alcohol and 2.0% or 2.8% w/w ammonium sulfate and were subjected to 2 weeks at 54° C. and 4 weeks at 50° C.
# [2] = Metribuzin solubility in salt solutions; format: physicochemical; conditions: saturated in ammonium sulfate, ammonium acetate and potassium citrate tribasic monohydrate solutions; FIG. 1
# Experimental: Metribuzin is partially soluble in water. Because of its partial solubility metribuzin grows crystals in aqueous solutions. It is a discovery of the present invention that, if water solubility of metribuzin is lowered, then crystal growth is inhibited or reduced. To determine if salts could lower the water solubility of metribuzin, metribuzin was added to the saturation point to several concentrations of ammonium sulfate, ammonium acetate and potassium citrate tribasic monohydrate solutions. Results can be seen in FIG. 1.
# [3] = variations of Composition 2, 54° C. 2 weeks and 50° C. 4 weeks
Structure (SMILES),"effect of additive on crystal growth and sieve residue [1, 3]","effect of additive on crystal growth and sieve residue ([1]; variations of Composition 3, 54° C. 2 weeks)","effect of additive on crystal growth and sieve residue ([1]; variations of Composition 4, 54° C. 2 weeks)",water solubility of metribuzin versus salt concentration [2]
N.N.O=S(=O)(O)O [Ammonium sulfate],reduced crystal growth to small crystals,reduced the amount of crystals isolated on the sieve substantially,inhibited crystal growth and lowered sieve residue,–
O=C([O-])CC(O)(CC(=O)[O-])C(=O)[O-].[K+].[K+].[K+] [Potassium citrate],completely inhibited crystal growth,–,–,–
CSc1nnc(C(C)(C)C)c(=O)n1N [metribuzin],–,–,–,negatively correlated
